Where two headings read alike, the source gives them in different places.
Columns and labels:
chytrids [1] = system: chytrids
From the text: Culture samples of Haematococcus pluvialis (Strain 2) were collected on the second day of the culture from open raceway bioreactor #2430 operating in conditions: reactor volume of 170,000 L; Daily PAR not measured; pH of 7.3; and paddlewheel speed of 70. The culture samples were distributed into flasks for culturing, consisting of duplicate untreated controls and duplicate treatments. […] Samples were taken from the flask cultures daily to quantify % lysis and % chytrid infection and cell dry weight was quantified every other day for a duration of 11 days.

chytrids [2] = conditions: for % Chytrids Infection: 0.0105 mL/L every 6 hours
From the text: Three 3,000 L open raceway pond bioreactor #'s MP1, MP2, & MP3 with paddlewheel mixing disposed outdoors were inoculated with cultures of green swimmer Haematococcus pluvialis (Strain 2) cells from outdoor reactor #2310 at a dilution ratio of 1 part culture samples to 3 parts reddening media containing 1 ppt salt (NaCl). […] MP2 was not treated with hydrogen peroxide to serve as an untreated control for comparison purposes. […] After hydrogen peroxide treatments began, the percent of the cultures infected with chytrids, percent of carotenoids by UV method, and cell dry weight (g/L) were quantified daily.

hydrogen peroxide [H2O2]
% Chytrid infection (chytrids [1]; 0.0105 mL/L 1 time per day for 3 d then every other day, day 0): 0.0 ± 0.0% | % Chytrid infection (chytrids [1]; 0.0105 mL/L 1 time per day for 3 d then every other day, day 3): 0.0 ± 0.0% | % Chytrid infection (chytrids [1]; 0.0105 mL/L 1 time per day for 3 d then every other day, day 4): 0.8 ± 1.2% | % Chytrid infection (chytrids [1]; 0.0105 mL/L 1 time per day for 3 d then every other day, day 5): 5.0 ± 2.4% | % Chytrid infection (chytrids [1]; 0.0105 mL/L 1 time per day for 3 d then every other day, day 6): 2.5 ± 1.2% | % Chytrid infection (chytrids [1]; 0.0105 mL/L 1 time per day for 3 d then every other day, day 7): 0.0 ± 0.0% | % Chytrid infection (chytrids [1]; 0.0105 mL/L 1 time per day for 3 d then every other day, day 8): 0.0 ± 0.0% | % Chytrid infection (chytrids [1]; 0.0105 mL/L 1 time per day for 3 d then every other day, day 9): 2.5 ± 3.5% | % Chytrid infection (chytrids [1]; 0.0105 mL/L 1 time per day for 3 d then every other day, day 10): 1.7 ± 2.4% | % Chytrid infection (chytrids [1]; 0.0105 mL/L 1 time per day, day 0): 0.0 ± 0.0% | % Chytrid infection (chytrids [1]; 0.0105 mL/L 1 time per day, day 3): 0.0 ± 0.0% | % Chytrid infection (chytrids [1]; 0.0105 mL/L 1 time per day, day 4): 0.8 ± 1.2% | % Chytrid infection (chytrids [1]; 0.0105 mL/L 1 time per day, day 5): 0.8 ± 1.2% | % Chytrid infection (chytrids [1]; 0.0105 mL/L 1 time per day, day 6): 1.7 ± 2.4% | % Chytrid infection (chytrids [1]; 0.0105 mL/L 1 time per day, day 7): 3.3 ± 0.0% | % Chytrid infection (chytrids [1]; 0.0105 mL/L 1 time per day, day 8): 0.0 ± 0.0% | % Chytrid infection (chytrids [1]; 0.0105 mL/L 1 time per day, day 9): 0.8 ± 1.2% | % Chytrid infection (chytrids [1]; 0.0105 mL/L 1 time per day, day 10): 0.0 ± 0.0% | % Chytrid infection (chytrids [1]; 0.0140 mL/L 1 time per day for 3 d then every other day, day 0): 0.0 ± 0.0% | % Chytrid infection (chytrids [1]; 0.0140 mL/L 1 time per day for 3 d then every other day, day 3): 0.0 ± 0.0% | % Chytrid infection (chytrids [1]; 0.0140 mL/L 1 time per day for 3 d then every other day, day 4): 0.0 ± 0.0% | % Chytrid infection (chytrids [1]; 0.0140 mL/L 1 time per day for 3 d then every other day, day 5): 0.0 ± 0.0% | % Chytrid infection (chytrids [1]; 0.0140 mL/L 1 time per day for 3 d then every other day, day 6): 1.7 ± 2.4% | % Chytrid infection (chytrids [1]; 0.0140 mL/L 1 time per day for 3 d then every other day, day 7): 0.0 ± 0.0% | % Chytrid infection (chytrids [1]; 0.0140 mL/L 1 time per day for 3 d then every other day, day 8): 0.8 ± 1.2% | % Chytrid infection (chytrids [1]; 0.0140 mL/L 1 time per day for 3 d then every other day, day 9): 0.0 ± 0.0% | % Chytrid infection (chytrids [1]; 0.0140 mL/L 1 time per day for 3 d then every other day, day 10): 0.0 ± 0.0% | % Chytrid infection (chytrids [1]; 0.0140 mL/L 1 time per day, day 0): 0.0 ± 0.0% | % Chytrid infection (chytrids [1]; 0.0140 mL/L 1 time per day, day 3): 0.0 ± 0.0% | % Chytrid infection (chytrids [1]; 0.0140 mL/L 1 time per day, day 4): 0.0 ± 0.0% | % Chytrid infection (chytrids [1]; 0.0140 mL/L 1 time per day, day 6): 0.0 ± 0.0% | % Chytrid infection (chytrids [1]; 0.0140 mL/L 1 time per day, day 7): 1.7 ± 2.4% | % Chytrid infection (chytrids [1]; 0.0140 mL/L 1 time per day, day 8): 0.8 ± 1.2% | % Chytrid infection (chytrids [1]; 0.0140 mL/L 1 time per day, day 9): 0.8 ± 1.2% | % Chytrid infection (chytrids [1]; 0.0140 mL/L 1 time per day, day 10): 0.0 ± 0.0% | % Chytrid infection (chytrids [1]; 0.0175 mL/L 1 time per day for 2 d then every other, day 0): 0.0 ± 0.0% | % Chytrid infection (chytrids [1]; 0.0175 mL/L 1 time per day for 2 d then every other, day 3): 0.0 ± 0.0% | % Chytrid infection (chytrids [1]; 0.0175 mL/L 1 time per day for 2 d then every other, day 4): 0.0 ± 0.0% | % Chytrid infection (chytrids [1]; 0.0175 mL/L 1 time per day for 2 d then every other, day 5): 0.0 ± 0.0% | % Chytrid infection (chytrids [1]; 0.0175 mL/L 1 time per day for 2 d then every other, day 6): 0.8 ± 1.2% | chytrid infection (chytrids [1]; all treated flasks): under 10% | % Chytrids Infection (chytrids [2]; MP1, initial infection 20%, day 7): 23.3 ± 5.8% | % Chytrids Infection (chytrids [2]; MP1, initial infection 20%, day 8): 20.0 ± 5.0% | % Chytrids Infection (chytrids [2]; MP1, initial infection 20%, day 9): 30.0 ± 10.0% | % Chytrids Infection (chytrids [2]; MP1, initial infection 20%, day 10): 26.7 ± 2.9% | % Chytrids Infection (chytrids [2]; MP1, initial infection 20%, day 11): 61.7 ± 24.7% | % Chytrids Infection (chytrids [2]; MP1, initial infection 20%, day 12): 63.3 ± 16.1% | % Chytrids Infection (chytrids [2]; MP1, initial infection 20%, day 13): 73.3 ± 7.6% | % Chytrids Infection (chytrids [2]; MP1, initial infection 20%, day 14): 76.7 ± 17.6% | % Chytrids Infection (chytrids [2]; MP3, initial infection less than 5%, day 7): 1.7 ± 2.9% | % Chytrids Infection (chytrids [2]; MP3, initial infection less than 5%, day 8): 0.0 ± 0.0% | % Chytrids Infection (chytrids [2]; MP3, initial infection less than 5%, day 9): 1.7 ± 2.9% | % Chytrids Infection (chytrids [2]; MP3, initial infection less than 5%, day 10): 0.0 ± 0.0% | % Chytrids Infection (chytrids [2]; MP3, initial infection less than 5%, day 11): 0.0 ± 0.0% | % Chytrids Infection (chytrids [2]; MP3, initial infection less than 5%, day 12): 0.0 ± 0.0% | % Chytrids Infection (chytrids [2]; MP3, initial infection less than 5%, day 13): 3.3 ± 2.9% | % Chytrids Infection (chytrids [2]; MP3, initial infection less than 5%, day 14): 0.0 ± 0.0% | chytrids infection level (chytrids [2]; MP3 culture, below 5% when the treatments started, 1 ppt salt): below 5%
